Reference: ChEMBL document CHEMBL1201862, “PubChem BioAssay data set” (2004)
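Assay format: 96-well plates, 48-hour exposure. GI50 = concentration required for 50% inhibition of growth.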 Calls of active or inactive are those of the source. Rule as the data show it: active = GI50 up to about 1.1 µM and inactive = higher.

Legend:
Experiment in all cases: DTP human tumour cell line panel, 48 h
EKVX = test system: EKVX
UACC-62 = test system: UACC-62
HOP-92 = test system: HOP-92
SK-MEL-28 = test system: SK-MEL-28
DLD-1 = test system: DLD-1
MOLT-4 = test system: MOLT-4
XF498 = test system: XF498
HCT-15 = test system: HCT-15
A549 = test system: A549
DMS-114 = test system: DMS-114
CCRF-CEM = test system: CCRF-CEM
SNB-75 = test system: SNB-75
U-251 = test system: U-251
KM12 = test system: KM12
ACHN = test system: ACHN
SF-268 = test system: SF-268
SF-539 = test system: SF-539
HOP-18 = test system: HOP-18
M14 = test system: M14
DMS-273 = test system: DMS-273
NCI-H226 = test system: NCI-H226
SNB-78 = test system: SNB-78
SNB-19 = test system: SNB-19
Malme-3M = test system: Malme-3M
HCC 2998 = test system: HCC 2998
M19-MEL = test system: M19-MEL
OVCAR-3 = test system: OVCAR-3
HOP-62 = test system: HOP-62
RXF 393 = test system: RXF 393
KM-20L2 = test system: KM-20L2
NCI-H23 = test system: NCI-H23
SF-295 = test system: SF-295
K562 = test system: K562
UO-31 = test system: UO-31
786-0 = test system: 786-0
OVCAR-4 = test system: OVCAR-4
SK-MEL-2 = test system: SK-MEL-2
IGROV-1 = test system: IGROV-1
SK-OV-3 = test system: SK-OV-3
A498 = test system: A498
SK-MEL-5 = test system: SK-MEL-5
HCT-116 = test system: HCT-116
UACC-257 = test system: UACC-257
OVCAR-5 = test system: OVCAR-5
RPMI-8226 = test system: RPMI-8226
SN12C = test system: SN12C
HL-60 = test system: HL-60
CAKI-1 = test system: CAKI-1
LXFL 529 = test system: LXFL 529
NCI-H460 = test system: NCI-H460
SW-620 = test system: SW-620
COLO 205 = test system: COLO 205
HT-29 = test system: HT-29
SR = test system: SR
LOX IMVI = test system: LOX IMVI
NCI-H522 = test system: NCI-H522
TK-10 = test system: TK-10
OVCAR-8 = test system: OVCAR-8
RXF 631 = test system: RXF 631

SMILES: Clc1ccc(-c2c(C3=NCCN3)nnn2-c2ccccc2)cc1
- GI50 (EKVX): > 100 µM (inactive)
- GI50 (UACC-62): > 100 µM (inactive)
- GI50 (HOP-92): 92 µM (inactive)
- GI50 (SK-MEL-28): > 100 µM (inactive)
- GI50 (DLD-1): > 100 µM (inactive)
- GI50 (MOLT-4): 80.2 µM (inactive)
- GI50 (XF498): > 100 µM (inactive)
- GI50 (HCT-15): > 100 µM
- GI50 (A549): > 100 µM (inactive)
- GI50 (DMS-114): > 100 µM (inactive)
- GI50 (CCRF-CEM): > 100 µM (inactive)
- GI50 (SNB-75): > 100 µM (inactive)
- GI50 (U-251): > 100 µM (inactive)
- GI50 (KM12): > 100 µM (inactive)
- GI50 (ACHN): > 100 µM (inactive)
- GI50 (SF-268): > 100 µM (inactive)
- GI50 (SF-539): > 100 µM (inactive)
- GI50 (HOP-18): > 100 µM (inactive)
- GI50 (M14): > 100 µM (inactive)
- GI50 (DMS-273): > 100 µM (inactive)
- GI50 (NCI-H226): > 100 µM (inactive)
- GI50 (SNB-78): > 100 µM (inactive)
- GI50 (SNB-19): > 100 µM (inactive)
- GI50 (Malme-3M): > 100 µM (inactive)
- GI50 (HCC 2998): > 100 µM (inactive)
- GI50 (M19-MEL): > 100 µM (inactive)
- GI50 (OVCAR-3): > 100 µM (inactive)
- GI50 (HOP-62): > 100 µM (inactive)
- GI50 (RXF 393): > 100 µM (inactive)
- GI50 (KM-20L2): 85.3 µM (inactive)
- GI50 (NCI-H23): > 100 µM (inactive)
- GI50 (SF-295): > 100 µM (inactive)
- GI50 (K562): 61.1 µM (inactive)
- GI50 (UO-31): 82.4 µM (inactive)
- GI50 (786-0): > 100 µM (inactive)
- GI50 (OVCAR-4): > 100 µM (inactive)
- GI50 (SK-MEL-2): 51.2 µM (inactive)
- GI50 (IGROV-1): > 100 µM (inactive)
- GI50 (SK-OV-3): > 100 µM (inactive)
- GI50 (A498): > 100 µM (inactive)
- GI50 (SK-MEL-5): 97.1 µM (inactive)
- GI50 (HCT-116): 83.4 µM (inactive)
- GI50 (UACC-257): > 100 µM (inactive)
- GI50 (OVCAR-5): > 100 µM (inactive)
- GI50 (RPMI-8226): > 100 µM (inactive)
- GI50 (SN12C): > 100 µM (inactive)
- GI50 (HL-60): > 100 µM (inactive)
- GI50 (CAKI-1): > 100 µM (inactive)
- GI50 (LXFL 529): > 100 µM (inactive)
- GI50 (NCI-H460): > 100 µM (inactive)
- GI50 (SW-620): > 100 µM (inactive)
- GI50 (COLO 205): 40.1 µM (inactive)
- GI50 (HT-29): 68.7 µM (inactive)
- GI50 (SR): 49.2 µM (inactive)
- GI50 (LOX IMVI): > 100 µM (inactive)
- GI50 (NCI-H522): > 100 µM (inactive)
- GI50 (TK-10): 51.8 µM (inactive)
- GI50 (OVCAR-8): > 100 µM (inactive)

SMILES: N#CCc1ccccc1/C(C#N)=C1/OC(=N)C(c2ccccc2CC#N)C1=O (stereo not given)
- GI50 (EKVX): > 100 µM (inactive)
- GI50 (UACC-62): 42.2 µM (inactive)
- GI50 (HOP-92): > 100 µM (inactive)
- GI50 (SK-MEL-28): > 100 µM (inactive)
- GI50 (MOLT-4): 57.8 µM (inactive)
- GI50 (A549): > 100 µM (inactive)
- GI50 (CCRF-CEM): > 100 µM (inactive)
- GI50 (SNB-75): > 100 µM (inactive)
- GI50 (KM12): > 100 µM (inactive)
- GI50 (ACHN): > 100 µM (inactive)
- GI50 (SF-268): > 100 µM (inactive)
- GI50 (RXF 631): > 100 µM (inactive)
- GI50 (SF-539): > 100 µM (inactive)
- GI50 (M14): > 100 µM (inactive)
- GI50 (DMS-273): > 100 µM (inactive)
- GI50 (NCI-H226): > 100 µM (inactive)
- GI50 (M19-MEL): > 100 µM (inactive)
- GI50 (OVCAR-3): > 100 µM (inactive)
- GI50 (KM-20L2): > 100 µM (inactive)
- GI50 (SF-295): > 100 µM (inactive)
- GI50 (K562): > 100 µM (inactive)
- GI50 (786-0): > 100 µM (inactive)
- GI50 (IGROV-1): > 100 µM (inactive)
- GI50 (SK-OV-3): > 100 µM (inactive)
- GI50 (SK-MEL-5): > 100 µM (inactive)
- GI50 (HCT-116): > 100 µM (inactive)
- GI50 (UACC-257): > 100 µM (inactive)
- GI50 (RPMI-8226): > 100 µM (inactive)
- GI50 (HL-60): > 100 µM (inactive)
- GI50 (CAKI-1): > 100 µM (inactive)
- GI50 (LXFL 529): 43.2 µM (inactive)
- GI50 (SW-620): > 100 µM (inactive)
- GI50 (HT-29): 92 µM (inactive)
- GI50 (SR): > 100 µM (inactive)
- GI50 (LOX IMVI): > 100 µM (inactive)
- GI50 (NCI-H522): 47.4 µM (inactive)
- GI50 (TK-10): > 100 µM (inactive)
